Reference: PubChem BioAssay (NCI)
Where “and” joins values, the source holds several entries; their conditions need not be identical. Equal values may be shown once.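 Growth conditions: 96-well plates. Treatment: test compound, 48 hours, 5 concentrations. Analysis: linear interpolation between bracketing concentrations; unreached endpoints set to highest concentration. The concentration for 50% growth inhibition is given as GI50. Definition used: TGI = concentration required for complete inhibition of growth.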

What was measured:
Test in all cases: NCI-60 cell line screen, 48 h
NCI-H23 lung = tested on: NCI-H23 lung
A549 NSCLC = tested on: A549 NSCLC
KM12 colon = tested on: KM12 colon
A498 renal = tested on: A498 renal
SW-620 colon = tested on: SW-620 colon
HCT-116 colon = tested on: HCT-116 colon
IGROV1 ovarian = tested on: IGROV1 ovarian
UO-31 renal = tested on: UO-31 renal
PC-3 prostate = tested on: PC-3 prostate
SF-295 CNS = tested on: SF-295 CNS

| SMILES | TGI (NCI-H23 lung) | GI50 (A549 NSCLC) | TGI (A549 NSCLC) | TGI (KM12 colon) | GI50 (A498 renal) | TGI (A498 renal) | TGI (SW-620 colon) | TGI (HCT-116 colon) | GI50 (IGROV1 ovarian) [µM] | TGI (IGROV1 ovarian) | GI50 (UO-31 renal) | TGI (UO-31 renal) | TGI (PC-3 prostate) | GI50 (SF-295 CNS) | GI50 (NCI-H23 lung) | GI50 (KM12 colon) | GI50 (SW-620 colon) | GI50 (HCT-116 colon) | GI50 (PC-3 prostate) | TGI (SF-295 CNS) [µM] |
| --- | --- | --- | --- | --- | --- | --- | --- | --- | --- | --- | --- | --- | --- | --- | --- | --- | --- | --- | --- | --- |
| CC(=O)O[C@H]1C(=O)[C@@]2(C)C([C@H](OC(=O)c3ccccc3)[C@]3(O)C[C@H](OC(=O)[C@H](O)[C@@H](NC(=O)c4ccc(Cl)cc4)c4ccccc4)C(C)=C1C3(C)C)C1(OC(C)=O)CO[C@@H]1C[C@@H]2O (some centres not stated) | 25 µM and > 100 µM | 0.0219 µM | 25 µM and > 100 µM | 25 µM | 11.1 µM | 25 µM and > 100 µM | 25 µM and > 100 µM | 3.31 µM and 1.85 µM | 0.0134 | 25 µM and 28.2 µM | 4.77 µM | 25 µM and 53.8 µM | 0.217 µM | 0.177 µM | – | – | – | – | – | – |
| COc1ccc(C2=NOC3=c4ccccc4=CSC3=C2c2ccccc2)cc1 | > 100 µM | > 100 µM | > 100 µM | > 100 µM | – | > 100 µM | > 100 µM | > 100 µM | 45.8 | > 100 µM | 39.2 µM | > 100 µM | > 100 µM | 48.9 µM | 46.2 µM | 57.7 µM | 28.9 µM | 12.8 µM | 20.5 µM | > 100 |
| O=C(Nc1ccc(-n2cc(-c3ccncc3)c(-c3ccc(Cl)c(O)c3)n2)cc1)c1ccc(Cl)c(Cl)c1 | > 100 µM | 6.71 µM | > 100 µM | > 100 µM | 35.7 µM | > 100 µM | > 100 µM | > 100 µM | > 100 | > 100 µM | 2.83 µM | 8.62 µM | > 100 µM | 1.01 µM | 4.18 µM | 3.05 µM | 4.42 µM | 2.89 µM | 4.18 µM | 2.77 |
| COc1cc(OC)c(OC)cc1/C=C\c1ccnc2ccccc12 | 23.5 µM | – | > 72.6 µM | > 67.5 µM | – | 5.64 µM | > 63.1 µM | 54.8 µM | – | > 72.9 µM | – | > 80.6 µM | > 100 µM | – | – | – | – | – | – | 3.55 |
| Cc1nc(Nc2ccc(Cl)c(Cl)c2)sc1C(/C=C/c1ccc2c(c1)OCO2)=N/Nc1ccc([N+](=O)[O-])cc1[N+](=O)[O-] | > 100 µM | – | > 100 µM | > 100 µM | – | > 100 µM | > 100 µM | > 100 µM | – | > 100 µM | – | > 100 µM | > 100 µM | – | – | – | – | – | – | > 100 |
| C#CCN(CCCOc1ccc(Cl)cc1Cl)CCCSC(=O)CCCCCN1/C(=C\C=C2/CCCC(/C=C/C3=[N+](CCCCCC(=O)[O-])c4ccccc4C3(C)C)=C2Cl)C(C)(C)c2ccccc21 | 5.09 µM | 3.22 µM | 13.2 µM | 4.46 µM | 1.31 µM | 4.12 µM | 5.44 µM | 3.14 µM | 1.42 | 3.34 µM | 10.6 µM | 26.2 µM | 4.01 µM | 1.91 µM | 1.94 µM | 1.56 µM | 1.65 µM | 1.63 µM | 1.69 µM | 4.06 |
| Clc1cc(Cl)cc(Nc2ccc3c(OCCCN4CCOCC4)cccc3n2)c1 | 10.2 µM | 2.6 µM | 6.87 µM | 4.13 µM | 2.39 µM | 12.1 µM | 3.69 µM | 3.56 µM | 3.9 | 17.6 µM | 1.51 µM | 2.94 µM | 4.69 µM | 1.92 µM | 2.94 µM | 2 µM | 1.86 µM | 1.82 µM | 1.94 µM | 4.06 |
| C=C1CCC2C(C)(CO)C(O)CCC2(C)C1C/C=C1\C(=O)OCC1O (configuration not stated) | 49.8 µM | – | 80.9 µM | 27.2 µM | – | 93.1 µM | 24 µM | 28.9 µM | – | 57.4 µM | – | > 100 µM | 71.6 µM | – | – | – | – | – | – | 52.5 |
| COc1ccccc1CNCCCN1C(=O)c2ccc3c4c(ccc(c24)C1=O)C(=O)N(CCCNCCCCN)C3=O | 0.595 µM | 0.29 µM | 1.06 µM | 1.29 µM | 0.972 µM | 2.55 µM | 0.858 µM | 0.694 µM | 0.464 | 15.9 µM | 1.95 µM | 9.92 µM | 2.35 µM | 0.678 µM | 0.222 µM | 0.332 µM | 0.161 µM | 0.216 µM | 0.307 µM | 2.79 |
| CNc1ccc(CSc2ccc(C)cc2)cc1 | > 100 µM | 5.34 µM | > 100 µM | > 100 µM | 0.178 µM | > 100 µM | > 100 µM | > 100 µM | 13 | > 100 µM | 1.16 µM | 4.32 µM | > 100 µM | 22.3 µM | 25 µM | 8.58 µM | 18.6 µM | 32.9 µM | 13.2 µM | > 100 |
| COc1ccc(-c2nc3sccn3c2/C=C/C(=O)c2cc(OC)c(OC)c(OC)c2)cc1 | > 28.7 µM | 2.92 µM | > 22.9 µM | 7.75 µM | 2.52 µM | 6.41 µM | > 100 µM | 12.6 µM | 1.24 | – | 2.12 µM | > 25.5 µM | > 38.7 µM | 2.91 µM | 2.49 µM | 2.56 µM | 3.01 µM | 2.19 µM | 2.97 µM | 18.3 |
| CC(C)(C)c1cnc(CSc2cnc(NC(=O)C3CCNCC3)s2)o1 | 0.767 µM and > 2.56 µM | 0.256 µM and 0.23 µM | > 10 µM | 5.35 µM and > 10 µM | 0.223 µM and 0.23 µM | 0.598 µM and 0.714 µM | > 100 µM | > 100 µM | 0.204 | 4.28 µM and > 10 µM | 5.6 µM and 2.07 µM | 21.7 µM and > 8.99 µM | 2.81 µM and > 9 µM | 0.185 µM and 0.602 µM | 0.251 µM and 0.211 µM | 0.14 µM and 0.166 µM | 0.256 µM and 0.274 µM | 0.102 µM and 0.0797 µM | 0.21 µM and 0.19 µM | > 10 |
